According to patent US20250009763A1, “METHODS FOR EXTENDING LIFESPAN AND/OR DELAYING AGING” (priority 2023, published 2025):

Key:
[1] = system: tor1Δ deletion strain of yeast; assay: RLS of tor1Δ deletion strain; type: cell-based, Saccharomyces cerevisiae; details: data not shown
[2] = system: intracellular NAD^+ of WT yeast cells (BY4741); assay: Intracellular NAD^+ content; type: cell-based, Saccharomyces cerevisiae; details: 25 μM, 2 hours; FIG. 2B
Procedure: WT yeast cells (BY4741; […] per group) were incubated in the presence of DMSO (control) or PN6 (25 μM), or cultured in YEPD medium adjusted to CR 0.1%, for 2 hours, before being harvested. The harvested cells were extracted with 250 μl of 1 M glacial formic acid saturated with butanol, incubated for 30 minutes on ice. Then, 62.5 μl of 100% trichloroacetic acid (TCA) (w/v) was added to each sample, and the samples were incubated on ice for an additional 15 minutes. The samples were pelleted by centrifugation at 17,000×g and 4° C. for 5 minutes, and the supernatant was transferred to another eppendorf tube. […]
For analysis, each supernatant or standard sample was divided into two sets: the control set and the test set (150 μl per set), each of which was assembled with an alcohol dehydrogenase (ADH) reaction buffer (345 μl, containing 360 mM Tris (pH 9.7), 240 mM lysine, 0.24% (v/v) EtOH). […] After incubation at room temperature for 10 minutes, the absorbance at 340 nm of each sample was measured by a microplate reader. To determine the NAD^+ levels in each supernatant or standard sample, the absorbance values of the test set (the ADH catalytic set) were divided by the corresponding values of the control set (the water set), which represented the basal NADH levels.

[3] = biological target: T1, SIRT1 (Homo sapiens, UniProt Q96EB6); assay: Acetylation of p53 (K382) via UV irradiation, western blot, IMR90 cells; type: cell-based; details: FIGS. 2G-2H
T1 construct: endogenous in cells; host or cells: U2OS cells; IMR90 cells
T1 sequence (Q96EB6 1-747): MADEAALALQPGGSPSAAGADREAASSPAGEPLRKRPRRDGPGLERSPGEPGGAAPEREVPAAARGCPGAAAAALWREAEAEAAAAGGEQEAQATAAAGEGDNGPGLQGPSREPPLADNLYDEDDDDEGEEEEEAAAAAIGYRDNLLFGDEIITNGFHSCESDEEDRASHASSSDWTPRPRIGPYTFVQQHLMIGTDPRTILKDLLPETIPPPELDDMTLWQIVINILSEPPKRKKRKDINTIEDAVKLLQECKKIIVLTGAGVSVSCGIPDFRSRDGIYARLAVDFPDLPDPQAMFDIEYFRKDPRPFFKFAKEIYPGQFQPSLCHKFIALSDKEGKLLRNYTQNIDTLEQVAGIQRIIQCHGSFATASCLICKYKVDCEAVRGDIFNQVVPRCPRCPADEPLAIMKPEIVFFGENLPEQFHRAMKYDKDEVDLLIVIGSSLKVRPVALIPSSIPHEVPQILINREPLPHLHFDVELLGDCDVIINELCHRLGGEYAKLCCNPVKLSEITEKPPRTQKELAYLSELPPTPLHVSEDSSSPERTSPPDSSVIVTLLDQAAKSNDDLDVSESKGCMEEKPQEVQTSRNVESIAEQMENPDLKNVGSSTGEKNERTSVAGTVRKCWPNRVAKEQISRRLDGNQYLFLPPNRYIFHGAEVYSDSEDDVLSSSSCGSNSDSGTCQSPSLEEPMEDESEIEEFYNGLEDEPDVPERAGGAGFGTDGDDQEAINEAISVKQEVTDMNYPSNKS
Procedure: U2OS cells (1.2×10^5 cells/dish) or IMR90 cells (3.0×10^5 cells/dish) were seeded into a 3.5 cm culture dish, and incubated with 0, 10, 25, 50, or 100 μM PN6 for 16 hours, before subjected to UVB irradiation at 7.5 mJ/m^2 (for U2OS cells) or 5.0 mJ/m^2 (for IMR90 cells) for 4 hours.
Cells were harvested with a 1.25× Laemmli buffer and lysed in RIPA lysis buffer containing 1% of Triton X-100 and a protease inhibitor cocktail, and total protein concentrations were measured with a protein assay kit. Proteins in the samples of the lysates with the same amounts of total protein were separated by sodium dodecyl sulfate polyacrylamide gel electrophoresis (SDS-PAGE) (10% polyacrylamide gels) and analyzed by immunoblotting. Primary antibodies against p53ac (K382) (1:1,000), p21 (1:1,000), and 3-actin (1:200,000) were applied to detect the corresponding proteins. Horseradish peroxidase (HRP)-conjugated secondary antibodies against mouse IgG were then incubated with the membranes, and proteins were visualized by chemiluminescence according to the manufacturer's instructions. Protein quantification was performed by software.

[4] = system: aged C57BL/6J mice; assay: Rotarod test; type: in vivo, mouse; details: rotarod at constant or accelerating speed; mid-term and long-term; versus SD-fed mice; FIGS. 4H-4I
Procedure: The male C57BL/6J mice were subjected to a rotarod test at 88 weeks (mid-term) and 112 weeks (long-term) of age. The mice underwent a 3-day habituation period, during which they were placed on the rotarod at a constant speed (4 rpm), and were required to remain on the rotarod for 1 minute at a time every day. To conduct the actual test, each mouse was subjected to five trials, with a 10-15 minute rest period between each trial. For each trial, the tests for the constant and accelerated speeds were conducted sequentially according to the following schedule: During a 5-minute trial period, a run consisted of an initial constant rotating speed of 4 rpm and a subsequent accelerated rotating speed accelerated from 4 to 40 rpm was performed 5 times. […] The latency to falling was recorded, and the average latency to falling was calculated for each trial. Data are presented as the average of the 5 trials. Mid-term: SD, n=30; PN6, n=8; long-term: SD, n=22; PN6, n=8.

[5] = system: aged C57BL/6J mice; assay: Intraperitoneal insulin tolerance test (IpITT); type: in vivo, mouse; details: 107 weeks of age, versus SD; FIGS. 4J-4K
Procedure: The male C57BL/6J mice, aged 107 weeks, were fasted for […] while having free access to water, and their body weights were measured before the test started. The test was conducted by fasting the mice for 5 hours, and then injecting them with 1.25 U/kg of human recombinant insulin. Blood droplets were collected from the tail vein just prior to the insulin injection (time 0; baseline), and at 15, 30, 60, and 90 minutes following the injection. Blood glucose levels were measured using a blood glucose meter (Accu-Chek Guide; Roche, DE).

[6] = system: aged C57BL/6J mice; assay: Glucose tolerance; type: in vivo, mouse; details: between the two treatment groups; data not shown

Compound: CCC(CC[C@@H](C)C1CCC2C3CC(=O)[C@H]4C[C@@H](O)CC[C@]4(C)C3CC[C@@]21C)C(C)C (stereo in doubt) [PN6, (24S)-3β-hydroxy-5α-stigmastan-6-one]
- ability to increase yeast RLS upon deletion of the TOR1 gene [1]: not affected
- NAD^+ content of yeast [2]: significantly increased
- SIRT1 activity / acetylation of P53 at K382 [3]: increased SIRT1 activity to reverse acetylation of P53 at K382
- motor skills (latency to falling) [4]: steadily improved
- insulin sensitivity [5]: significantly higher
- glucose tolerance [6]: no significant differences
